Consider seven molecules from patent EP0304244A2, “Propanediol derivatives, their production and use” (Takeda Chemical Industries, Ltd., priority 1987, dated 1989).

In experiment [1] the test system is HL-60 cells (myelogenous leukemia cell lines). The experiment is described as follows: Inhibition of multiplication of HL-60 cells ([3H]thymidine incorporation). Type of experiment: cell-based. The conditions noted are these: Homo sapiens; HL-60 cells 2 x 10⁵cells/mℓ in GIT medium; 20 hours incubation then 4 hours with [³H]thymidine; 50% of the control group; read-out: Inhibition of Propagation of HL-60 cells(IC₅₀ : µg/mℓ). On the procedure:
The effect of the compound of this invention in inhibiting multiplication of myelogenous leukemia cells (HL-60) is shown in Table 1. The assay was conducted as follows. HL-60 cells (myelogenous leukemia cell lines) were suspended (2 x 10⁵cells/mℓ) in a GIT culture medium (Wako Pure Chemical Industries, Ltd.). Each hole of a 96-hole Microwell plate was inoculated with 0.2 mℓ of the suspension. The plate was incubated statically for 20 hours (37°C and 5% CO₂), to which was added 1 µCi of [³H]thymidine(5 Ci/mmol.), and the incubation was continued for further 4 hours. For determination of the amount of thymidine incorporated into cells, acid-insoluble fractions were collected with a glass-filter, and the radioactivity was determined by means of a liquid scintillation counter. The concentration of the drug required for reducing the radioactivity incorporated into cells to 50% of the control group was assumed to be IC₅₀ value of the compound.

A further experiment deals with MM46 cells. The experiment is described as follows: Antitumor action, intraperitoneal MM46 in mice, life-span and survivors. Type of experiment: in vivo. The conditions noted are these: C3H/He mice, 1 x 10⁴ MM46 cells i.p.; 0.25 mg/mouse for 4 consecutive days from the second day after inoculation; 60th day after inoculation. On the procedure: C3H/He mice (a group consisting of 5 mice) were inoculated intraperitoneally with 1 x 10⁴ MM46 cells per mouse, and given 0.25 mg/mouse of a drug for 4 consecutive days starting from the second day after the inoculation. Shown in Table 3 are the life-span prolongation ratio against the control group without treatment (provided that calculation was made on mice whose survival days were not longer than 60 days) and the number of surviving mice on the 60th day after the inoculation of MM46 cells.

Experiment [2] deals with Sarcoma 180 cells. The experiment is described as follows: Antitumor action, intraperitoneal Sarcoma 180 in mice, life-span and survivors. The conditions noted are these: ICR mice, 1 x 10⁵ Sarcoma 180 cells i.p.; for Life-span prolonggation ratio (T/C,%): 0.33 mg/mouse i.p. three times (1 hour, 1 day, 2 days after inoculation), calculated only on died mice; for 60th day number of survivors/number of mice tested: 0.33 mg/mouse i.p. three times, 60th day after the initiation of the test. Type of experiment: in vivo. On the procedure: ICR mice (a group consisting of 5 mice) were inoculated intraperitoneally with 1 x 10⁵ Sarcoma 180 cells per mouse. Then, 0.33 mg/mouse of a compound dissolved in physiological saline was intraperitoneally administered three times, i.e. 1 hour, 1 day and 2 days after the inoculation. Shown in Table 2 are the lifespan prolongation ratio against the control group without treatment and the number of surviving mice on the 60th day after the initiation of the test.

Experiment [3] deals with Sarcoma 180 cells. The experiment is described as follows: Antitumor action, subcutaneous Sarcoma 180 in mice, oral dosing, tumor weight. Type of experiment: in vivo. The conditions noted are these: ICR mice, 1 x 10⁵ Sarcoma 180 cells in dorsal subcutis; 0.3 mg/mouse orally 9 times from the 8th day; tumor weighed on the 21st day. On the procedure: ICR mice (a group consisting of 6 mice) were inoculated with 1 x 10⁵ Sarcoma 180 cells per mouse in the dorsal subcutis, and then 0.3 mg/mouse of a test compound dissolved in physiological saline was orally administered 9 times starting from the 8th day (8th to 10th, 13th to 17th and 20th days). On the 21st day, a tumor was enucleated, and the weight of the tumor was measured. The ratio of tumor weight of the treated group against that of the control group without treatment by drug is shown in Table 4.

As for `CCCCCCCCCCCCCCCCCCOCCCOCCCC[N+](C)(C)C.CS(=O)(=O)[O-]` [Compound of Working Example 1, N-[4-[3-(octadecyloxy)propoxy]butyl]N,N,N-trimethylammonium methanesulfonate], in experiment [1], the IC50 turned out to be 1.25 µg/mL. For the same molecule, in the experiment on MM46 cells, the “60th day No. of survivors/No. of mice tested” value is 5/5. Also, in the experiment with Sarcoma 180 cells [2], the “Life-span prolonggation ratio (T/C,%)” value is recorded as 295% and the “60th day number of survivors/number of mice tested” value was 2/5.

Turning to `CCCCCCCCCCCCCCCCCCOCCCOCCCC[n+]1ccccc1.CS(=O)(=O)[O-]` [Compound of Working Example 2, N-[4-[3-(octadecyloxy)propoxy]butyl]pyridinium methanesulfonate], in experiment [1], the IC50 was 0.62 µg/mL. In the case of `CCCCCCCCCCCCCCCCCCOCCCOCCCCCC[N+](C)(C)C.[Br-]` [Compound of Working Example 3, 6-[3-(octadecyloxy)propoxy]hexyl-N,N,N-trimethylammonium bromide], the IC50 in experiment [1] was 1.25 µg/mL. For the same molecule, the “Weight of tumor (T/C,%)” value in the experiment on Sarcoma 180 cells [3] was 24%. In the experiment with Sarcoma 180 cells [2], the “Life-span prolonggation ratio (T/C,%)” value was 342% and the “60th day number of survivors/number of mice tested” value is recorded as 2/5. With `CCCCCCCCCCCCCCCCCCOCCCOCCC[N+](C)(C)C.[Br-]` [Compound of Working Example 4, 3-[3-(octadecyloxy)propoxy]propyl-N,N,N-trimethylammonium bromide], the IC50 in experiment [1] was found to be 1.25 µg/mL. Same read-out and setting: the same measure for `CCCCCCCCCCCCCCCCCCOCCCOCCCCCCCC[N+](C)(C)C.[Cl-]` [Compound of Working Example 5, N-[8-[3-(octadecyloxy)propoxy]octyl]N,N,N-trimethylammonium chloride]: 5 µg/mL; for `CCCCCCCCCCCCCCCCCCOCCCOCCCCC[N+](C)(C)C.[Cl-]` [Compound of Working Example 7, N-[5-[3-(octadecyloxy)propoxy]pentyl]N,N,N-trimethylammonium chloride]: 2.5 µg/mL. Same read-out and setting: with `CCCCCCCCCCCCCCCCCCOCCCOCCCCC[n+]1ccccc1.[Cl-]` [Compound of Working Example 8, N-[5-[3-(octadecyloxy)propoxy]pentyl]pyridinium chloride] the figure was 1.25 µg/mL.
